PMC11157767 (Molecular Cancer, 2024)

System: TRIM24-MET-i cells
Experimental: The number of unique and shared differentially expressed genes between each comparison are shown in parentheses. A linear regression line is depicted along with Pearson’s correlation coefficient (r) and its associated p-value. […] Common negatively enriched genesets between all three comparisons are in bold. c, Heatmaps showing expression of Hallmark_Myc_Target_v1/2 genes for indicated cells and treatment comparisons (TRIM-MET cells were treated in vitro, TFG-MET cells in vivo). Select leading edge genes from GSEA are labeled.

CNC(=O)c1ccc(-c2cnc3ncc(Cc4ccc5ncccc5c4)n3n2)cc1F [Capmatinib]
NES HALLMARK_ADIPOGENESIS (GSEA v. DMSO): -0.9589 | NES HALLMARK_ALLOGRAFT_REJECTION (GSEA v. DMSO): -1.401 | NES HALLMARK_ANDROGEN_RESPONSE (GSEA v. DMSO): -1.889 | NES HALLMARK_APICAL_JUNCTION (GSEA v. DMSO): -1.091 | NES HALLMARK_APICAL_SURFACE (GSEA v. DMSO): 1.792 | NES HALLMARK_APOPTOSIS (GSEA v. DMSO): -1.59 | NES HALLMARK_BILE_ACID_METABOLISM (GSEA v. DMSO): 1.602 | NES HALLMARK_CHOLESTEROL_HOMEOSTASIS (GSEA v. DMSO): -1.359 | NES HALLMARK_COAGULATION (GSEA v. DMSO): -1.635 | NES HALLMARK_COMPLEMENT (GSEA v. DMSO): -1.904 | NES HALLMARK_DNA_REPAIR (GSEA v. DMSO): -0.965 | NES HALLMARK_E2F_TARGETS (GSEA v. DMSO): -1.195 | NES HALLMARK_EPITHELIAL_MESENCHYMAL_TRANSITION (GSEA v. DMSO): -1.076 | NES HALLMARK_ESTROGEN_RESPONSE_EARLY (GSEA v. DMSO): -1.483 | NES HALLMARK_ESTROGEN_RESPONSE_LATE (GSEA v. DMSO): -1.018 | NES HALLMARK_FATTY_ACID_METABOLISM (GSEA v. DMSO): 0.99 | NES HALLMARK_G2M_CHECKPOINT (GSEA v. DMSO): -1.318 | NES HALLMARK_GLYCOLYSIS (GSEA v. DMSO): -1.3547 | NES HALLMARK_HEDGEHOG_SIGNALING (GSEA v. DMSO): -1.3433 | NES HALLMARK_HEME_METABOLISM (GSEA v. DMSO): 1.243 | NES HALLMARK_HYPOXIA (GSEA v. DMSO): -1.387 | NES HALLMARK_IL2_STAT5_SIGNALING (GSEA v. DMSO): -2.015 | NES HALLMARK_IL6_JAK_STAT3_SIGNALING (GSEA v. DMSO): -0.9282 | NES HALLMARK_INFLAMMATORY_RESPONSE (GSEA v. DMSO): -1.659 | NES HALLMARK_INTERFERON_ALPHA_RESPONSE (GSEA v. DMSO): 1.273 | NES HALLMARK_INTERFERON_GAMMA_RESPONSE (GSEA v. DMSO): -0.9862 | NES HALLMARK_KRAS_SIGNALING_DN (GSEA v. DMSO): 1.126 | NES HALLMARK_KRAS_SIGNALING_UP (GSEA v. DMSO): -1.881 | NES HALLMARK_MITOTIC_SPINDLE (GSEA v. DMSO): -1.303 | NES HALLMARK_MTORC1_SIGNALING (GSEA v. DMSO): -2.1602 | NES HALLMARK_MYC_TARGETS_V1 (GSEA v. DMSO): -2.499 | NES HALLMARK_MYC_TARGETS_V2 (GSEA v. DMSO): -2.697 | NES HALLMARK_MYOGENESIS (GSEA v. DMSO): -0.8301 | NES HALLMARK_NOTCH_SIGNALING (GSEA v. DMSO): -1.186 | NES HALLMARK_OXIDATIVE_PHOSPHORYLATION (GSEA v. DMSO): -1.201 | NES HALLMARK_P53_PATHWAY (GSEA v. DMSO): -0.9833 | NES HALLMARK_PANCREAS_BETA_CELLS (GSEA v. DMSO): 1.071 | NES HALLMARK_PEROXISOME (GSEA v. DMSO): 1.028 | NES HALLMARK_PI3K_AKT_MTOR_SIGNALING (GSEA v. DMSO): -1.164 | NES HALLMARK_PROTEIN_SECRETION (GSEA v. DMSO): -1.171 | NES HALLMARK_REACTIVE_OXYGEN_SPECIES_PATHWAY (GSEA v. DMSO): -1.072 | NES HALLMARK_SPERMATOGENESIS (GSEA v. DMSO): 0.7417 | NES HALLMARK_TGF_BETA_SIGNALING (GSEA v. DMSO): -1.868 | NES HALLMARK_TNFA_SIGNALING_VIA_NFKB (GSEA v. DMSO): -2.324 | NES HALLMARK_UV_RESPONSE_DN (GSEA v. DMSO): -1.271 | NES HALLMARK_UV_RESPONSE_UP (GSEA v. DMSO): -1.537 | NES HALLMARK_WNT_BETA_CATENIN_SIGNALING (GSEA v. DMSO): -1.2104 | NES HALLMARK_XENOBIOTIC_METABOLISM (GSEA v. DMSO): 0.8191 | NES KRIGE_RESPONSE_TO_TOSEDOSTAT_6HR_DN (GSEA v. DMSO): -2.5861 | NES KRIGE_RESPONSE_TO_TOSEDOSTAT_24HR_DN (GSEA v. DMSO): -2.743 | NES LEE_BMP2_TARGETS_DN (GSEA v. DMSO): -2.881 | NES PUJANA_CHEK2_PCC_NETWORK (GSEA v. DMSO): -2.452 | NES WEI_MYCN_TARGETS_WITH_E_BOX (GSEA v. DMSO): -2.939 | ES GOBP_NCRNA_METABOLIC_PROCESS (GSEA, v. DMSO): -0.717 | ES GOBP_NCRNA_PROCESSING (GSEA, v. DMSO): -0.737 | ES GOBP_RIBONUCLEOPROTEIN_COMPLEX_BIOGENESIS (GSEA, v. DMSO): -0.7048 | ES GOBP_RIBOSOME_BIOGENESIS (GSEA, v. DMSO): -0.7793 | ES GOBP_RRNA_METABOLIC_PROCESS (GSEA, v. DMSO): -0.7679 | ES GOCC_MITOCHONDRIAL_ENVELOPE (GSEA, v. DMSO): -0.4986 | ES GOCC_NUCLEOLUS (GSEA, v. DMSO): -0.546 | ES GOCC_ORGANELLE_INNER_MEMBRANE (GSEA, v. DMSO): -0.5385 | ES GOCC_PRERIBOSOME (GSEA, v. DMSO): -0.8527 | ES GOCC_RIBONUCLEOPROTEIN_COMPLEX (GSEA, v. DMSO): -0.5996 | ES GOMF_CATALYTIC_ACTIVITY_ACTING_ON_A_TRNA (GSEA, v. DMSO): -0.6843 | ES GOMF_CATALYTIC_ACTIVITY_ACTING_ON_RNA (GSEA, v. DMSO): -0.6193 | ES GOMF_RNA_HELICASE_ACTIVITY (GSEA, v. DMSO): -0.6953 | ES GOMF_RRNA_BINDING (GSEA, v. DMSO): -0.7411 | ES GOMF_STRUCTURAL_CONSTITUENT_OF_RIBOSOME (GSEA, v. DMSO): -0.6124 | NES GOBP_NCRNA_METABOLIC_PROCESS (GSEA, v. DMSO): -2.6866 | NES GOBP_NCRNA_PROCESSING (GSEA, v. DMSO): -2.741 | NES GOBP_RIBONUCLEOPROTEIN_COMPLEX_BIOGENESIS (GSEA, v. DMSO): -2.64 | NES GOBP_RIBOSOME_BIOGENESIS (GSEA, v. DMSO): -2.85 | NES GOBP_RRNA_METABOLIC_PROCESS (GSEA, v. DMSO): -2.741 | NES GOCC_MITOCHONDRIAL_ENVELOPE (GSEA, v. DMSO): -1.908 | NES GOCC_NUCLEOLUS (GSEA, v. DMSO): -2.1002 | NES GOCC_ORGANELLE_INNER_MEMBRANE (GSEA, v. DMSO): -2.039 | NES GOCC_PRERIBOSOME (GSEA, v. DMSO): -2.662 | NES GOCC_RIBONUCLEOPROTEIN_COMPLEX (GSEA, v. DMSO): -2.294 | NES GOMF_CATALYTIC_ACTIVITY_ACTING_ON_A_TRNA (GSEA, v. DMSO): -2.236 | NES GOMF_CATALYTIC_ACTIVITY_ACTING_ON_RNA (GSEA, v. DMSO): -2.299 | NES GOMF_RNA_HELICASE_ACTIVITY (GSEA, v. DMSO): -2.194 | NES GOMF_RRNA_BINDING (GSEA, v. DMSO): -2.258 | NES GOMF_STRUCTURAL_CONSTITUENT_OF_RIBOSOME (GSEA, v. DMSO): -2.138
